The values below come from patent US7737144B2, “Pyrimido[5,4-e][1,2,4]triazine-5-7-diones, processes for preparing them and their use” (Sanofi-Aventis Deutschland GmbH, priority 2003, dated 2010).

The test deals with T1, recombinant human PTP1B (Homo sapiens, UniProt P18031).
T1 construct: without the carboxy terminal hydrophobic region (corresponding to 1-299 aa); FLAG (N); made in house; host or cells: Sf9 insect cells (baculovirus, Bac-to-Bac)
T1 sequence (P18031 1-299): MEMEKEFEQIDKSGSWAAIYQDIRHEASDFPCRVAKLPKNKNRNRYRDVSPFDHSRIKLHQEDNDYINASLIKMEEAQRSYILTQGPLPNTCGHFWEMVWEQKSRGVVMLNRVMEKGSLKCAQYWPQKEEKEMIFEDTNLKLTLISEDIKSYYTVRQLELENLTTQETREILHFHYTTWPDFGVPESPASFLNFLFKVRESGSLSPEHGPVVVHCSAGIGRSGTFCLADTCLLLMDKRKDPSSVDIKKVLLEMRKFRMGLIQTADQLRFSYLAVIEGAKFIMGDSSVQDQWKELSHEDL
The experiment in a line: Inhibiting phosphotyrosine phosphatase 1B (PTP1B), in-vitro phosphatase assay. The format is biochemical. The following applies: Table 2 Biological activity; substrate variant (phosphopeptide, p-nitrophenyl phosphate or DIFMUP) not stated. An excerpt: Inhibiting Phosphotyrosine Phosphatase 1B (PTP1B)
The setting up and implementation of an in-vitro assay for detecting a phosphatase-inhibiting effect of the compounds according to the invention are described below. The isolation of the enzyme preparation and the implementation of the assay are described. […]
This assay is based on releasing phosphate from a consensus substrate peptide which is detected in the nanomolar concentration range using the malachite green/ammonium molybdate method (Lanzetta, P. A., Alvarez, L. J., Reinach, P. S., Candia, O. A. Anal Biochem. 100: 95-97, 1979) as adapted for the microtiter plate format. […] After incubating at 22° C. for 30 min, in order to develop the color, the absorption at 650 nm was determined using a microtiter plate reader (Molecular Devices). Samples and blanks were measured in triplicate. The PTP1B activity was calculated as nanomoles of phosphate released per min and mg of protein using potassium phosphate as the standard. The inhibition of the recombinant hPTP1B by test substances was calculated as percentages of the phosphatase control. […]

Regarding `CCCCn1nc(-c2cccc(Oc3ccccc3)c2)nc2c(=O)n(C)c(=O)nc1-2` [compound 5], the IC50 was found to be 5.2 µM.
